Read-outs that look alike come from different tables or passages of the source.
Experiments:
E. coli D21f2tolC = assay: Resistance and cross-resistance levels, rpoB mutants from saturation mutagenesis (plasmid-borne), broth microdilution; type: cell-based, Escherichia coli
[1] = molecular target: T1, E. coli RNAP holoenzyme ([F^517]σ^70-RNAP holoenzyme) (Escherichia coli, UniProt P0A8T7+P0A8V2); assay: Fluorescence-detected RNAP-Rif interaction assay; type: binding; conditions: for Kd: calculated as koff/kon
T1 construct: made in house
Procedure: RNAP-Rif interaction assays were performed as in [Feklistov et al. (2008)]. The assays monitored the quenching of the fluorescence emission of fluorescein incorporated into RNAP holoenzyme at σ^70 residue 517 (serving as a fluorescence-resonance-energy-transfer donor) by the naphthyl moiety of Rif (serving as a fluorescence-resonance-energy-transfer acceptor; [Knight et al., 2005]; [Feklistov et al., 2008]). Fluorescence measurements were performed using a QuantaMaster QM1 spectrofluorometer (PTI, Edison, NJ) (excitation wavelength = 480 nm; emission wavelength = 530 nm; and excitation and emission slit widths = 5 nm).
For determination of association kinetics, 720 μl 2 nM [F^517]σ^70-RNAP holoenzyme and 0-2 μM GE in 40 mM Tris–HCl, pH 8.0, 100 mM NaCl, 10 mM MgCl2, 1 mM DTT, 0.02% Tween-20, and 5% glycerol was incubated 15 min at 24°C and then mixed with 30 μl 0.01–0.5 μM Rif in the same buffer at 24°C in a cuvette chamber with a mixing dead time ∼0.5 s, and fluorescence emission intensities were monitored for 30 min at 24°C. On-rates for RNAP-Rif interaction, kon, were calculated by fitting data to: I=(I0−I∞)exp(−kobst)+I∞ where kobs is the observed association rate constant at a specified Rif concentration, I is the fluorescence emission intensity at time t, Io is the fluorescence emission intensity at t = 0, and I∞ is the fluorescence emission intensity at t = ∞; followed by fitting the Rif-concentration-dependence of kobs to: kobs=kon[Rif]+koff where koff is ≥0 but is otherwise unconstrained.
Off-rates for RNAP-Rif interaction, koff, were calculated as: I=I0+(I∞−I0)[1−exp(−kofft)] where I is the fluorescence emission intensity at time t, Io is the fluorescence intensity at t = 0, and I∞ is the fluorescence intensity at t = ∞.
Equilibrium dissociation constants for RNAP-Rif interaction, Kd, were calculated as koff/kon.
The equilibrium dissociation constant for RNAP-GE interaction, Ki, was calculated from the association-kinetics data, by fitting the GE-concentration-dependence of I∞ to: I∞=(I∞,max[GE])/(Ki+[GE])

E. coli RNAP holoenzyme [2] = molecular target: T2, E. coli RNAP holoenzyme (Escherichia coli, UniProt P0A8T7+P0A8V2); type: biochemical; conditions: 0.5 μM GE or 2.2 μM Rif; lacUV5(ICAP) promoter
E. coli RNAP holoenzyme [3] = molecular target: T2, E. coli RNAP holoenzyme; type: biochemical; conditions: halted TEC containing 29 nt RNA product
E. coli RNAP holoenzyme [4] = molecular target: T2, E. coli RNAP holoenzyme; type: biochemical; conditions: 0.5 μM GE or 2.2 μM Rif; ApA primer and UTP
[Asn516]β-RNAP = [Asn516]β-RNAP (Escherichia coli, UniProt P0A8T7+P0A8V2, D516N); assay: biochemical; type: biochemical
Escherichia coli RNAP = Escherichia coli RNAP (Escherichia coli, UniProt P0A8T7+P0A8V2); assay: biochemical; type: biochemical; conditions: wild-type RNAP; at the limit of detection of the assay
[Asp565]β-RNAP = [Asp565]β-RNAP (Escherichia coli, UniProt P0A8T7+P0A8V2, E565D); type: biochemical
[5] = molecular target: [F^517]σ^70-RNAP holoenzyme (E. coli RNAP holoenzyme labelled with fluorescein at σ^70 residue 517), wild-type RNAP (E. coli) (UniProt P0A8V2); assay: other fluorescence titration
GE23077 = assay: partial-competitive binding of GE and Rif: association kinetics for Rif (fluorescence intensity of fluorescein-labelled RNAP holoenzyme); conditions: 2000 nM GE
[6] = rpoB 565 Glu→Asp, GE^R mutant from saturation mutagenesis
[7] = rpoB 566 Gly→Arg, GE^R mutant from saturation mutagenesis
[8] = rpoB 566 Gly→Cys, GE^R mutant from saturation mutagenesis
[9] = rpoB 566 Gly→Ser, GE^R mutant from saturation mutagenesis
[10] = rpoB 684 Asn→Lys, GE^R mutant from saturation mutagenesis
[11] = rpoB 684 Asn→Thr, GE^R mutant from saturation mutagenesis
[12] = wild-type control of the saturation-mutagenesis mutants, E. coli D21f2tolC

Compound: CCC/C(C)=C/C=C(\C)C(=O)c1c(O)cc([C@H](C)CC/C=C/NC(=O)OC)oc1=O (racemic) [Myx, (±)E,E-myxopyronin B]
- resistance / cross-resistance level (MIC/MICwild-type) (E. coli D21f2tolC; [6]): 1
- resistance / cross-resistance level (MIC/MICwild-type) (E. coli D21f2tolC; [7]): 1
- resistance / cross-resistance level (MIC/MICwild-type) (E. coli D21f2tolC; [8]): 1
- resistance / cross-resistance level (MIC/MICwild-type) (E. coli D21f2tolC; [9]): 1
- resistance / cross-resistance level (MIC/MICwild-type) (E. coli D21f2tolC; [10]): 1
- resistance / cross-resistance level (MIC/MICwild-type) (E. coli D21f2tolC; [11]): 1
- MICwild-type (E. coli D21f2tolC; [12]): 0.098 µg/mL

Compound: ONC(=Nc1ccccc1)c1cccc(C(F)(F)F)c1 [CBR703]
- resistance / cross-resistance level (MIC/MICwild-type) (E. coli D21f2tolC; [6]): 1
- resistance / cross-resistance level (MIC/MICwild-type) (E. coli D21f2tolC; [7]): 1
- resistance / cross-resistance level (MIC/MICwild-type) (E. coli D21f2tolC; [8]): 1
- resistance / cross-resistance level (MIC/MICwild-type) (E. coli D21f2tolC; [9]): 1
- resistance / cross-resistance level (MIC/MICwild-type) (E. coli D21f2tolC; [10]): 1
- resistance / cross-resistance level (MIC/MICwild-type) (E. coli D21f2tolC; [11]): 2
- MICwild-type (E. coli D21f2tolC; [12]): 6.25 µg/mL

Compound: CO[C@H]1/C=C/O[C@@]2(C)Oc3c(C)c(O)c4c(O)c(c(/C=N/N5CCN(C)CC5)c(O)c4c3C2=O)NC(=O)/C(C)=C\C=C\[C@H](C)[C@H](O)[C@@H](C)[C@@H](O)[C@@H](C)[C@H](OC(C)=O)[C@@H]1C [Rif, Rifampin]
- Kd ([1]; absence of GE): 0.0004 µM
- Kd ([1]; presence of saturating GE (2000 nM)): 0.03 µM
- koff ([1]; read-out: koff for Rif, 0 nM GE, Figure 6-figure supplement 1): 0.00019 s⁻¹
- koff ([1]; read-out: koff for Rif, absence of GE, Figure 6C): 0.0002 s⁻¹
- kon ([1]; read-out: kon for Rif, 0 nM GE, Figure 6-figure supplement 1 (condition assigned by comparison with Figure 6C)): 520000 M⁻¹ s⁻¹
- kon ([1]; read-out: kon for Rif, absence of GE, Figure 6C): 500000 M⁻¹ s⁻¹
- inhibition of formation of RNAP-promoter open complex (RPo) (E. coli RNAP holoenzyme [2]): does not inhibit formation of RPo
- cross-resistance of GE^R mutants to other RNAP inhibitors (E. coli D21f2tolC; GE^R mutants): do not exhibit cross-resistance
- resistance / cross-resistance level (MIC/MICwild-type) (E. coli D21f2tolC; {}): 1
- inhibition of nucleotide addition in transcription elongation, halted elongation complex (E. coli RNAP holoenzyme [3]): does not inhibit nucleotide addition in transcription elongation
- MICwild-type: 0.2 µg/mL
- inhibition of first nucleotide addition, primer-dependent transcription initiation (E. coli RNAP holoenzyme [4]): does not generally inhibit the first nucleotide-addition step in transcription initiation

Compound: CO[C@H]1/C=C/O[C@@]2(C)Oc3c(C)c(O)c4c(O)c(cc(O)c4c3C2=O)NC(=O)/C(C)=C\C=C\[C@H](C)[C@H](O)[C@@H](C)[C@@H](O)[C@@H](C)[C@H](OC(C)=O)[C@@H]1C [RifSV, rifamycin SV]
- IC50 ([Asn516]β-RNAP): 10 µM

Compound: CO[C@H]1/C=C/O[C@@]2(C)Oc3c(C)c(O)c4c(O)c(c(NC(C)C(C)C(=O)NC[C@H]5NC(=O)CNC(=O)[C@H](O)CNC(=O)[C@@H]([C@@H](C)O)NC(=O)[C@H]([C@@H](O)[C@H](O)C(N)=O)NC(=O)[C@@H](C(C)C)NC(=O)[C@@H](CO)NC5=O)c(O)c4c3C2=O)NC(=O)/C(C)=C\C=C\[C@H](C)[C@H](O)[C@@H](C)[C@@H](O)[C@@H](C)[C@H](OC(C)=O)[C@@H]1C (stereo partly drawn) [RifaGE-3, {[α-descarboxy-Ama]GE}-NH-{RifSV}]
- IC50 (Escherichia coli RNAP): ≤ 0.04 µM
- fold more potent than GE in inhibition of GE^R RNAP ([Asp565]β-RNAP): > 2500 fold
- fold more potent than RifSV in inhibition of Rif^R RNAP ([Asn516]β-RNAP): 50 fold
- IC50 ([Asn516]β-RNAP; Rif-resistant RNAP [Asn516]β-RNAP, read-out: IC50): 0.2 µM

Compound: CNC(=O)[C@@H](C)[C@H]1C(=O)/C(=C(O)/C=C/C(C)=C/[C@@H](C)[C@H]2O[C@@]3(C)O[C@H](C=C[C@@]34CO4)[C@@H]2C)C(=O)N1[C@@H]1CC[C@H](O)[C@H](C)O1 [Stl, streptolydigin]
- MICwild-type (E. coli D21f2tolC; {}): 0.78 µg/mL
- resistance / cross-resistance level (MIC/MICwild-type) (E. coli D21f2tolC; {}): 1

Compound: GE23077 (peptide)
- Ki [5]: 0.006 µM

Compound: Lipiarmycin [Lpm]
- resistance / cross-resistance level (MIC/MICwild-type) (E. coli D21f2tolC; [6]): 1
- resistance / cross-resistance level (MIC/MICwild-type) (E. coli D21f2tolC; [7]): 1
- resistance / cross-resistance level (MIC/MICwild-type) (E. coli D21f2tolC; [8]): 1
- resistance / cross-resistance level (MIC/MICwild-type) (E. coli D21f2tolC; [9]): 1
- resistance / cross-resistance level (MIC/MICwild-type) (E. coli D21f2tolC; [10]): 1
- resistance / cross-resistance level (MIC/MICwild-type) (E. coli D21f2tolC; [11]): 1
- MICwild-type (E. coli D21f2tolC; [12]): 0.78 µg/mL

Compound: Sorangicin
- resistance / cross-resistance level (MIC/MICwild-type) (E. coli D21f2tolC; [6]): 1
- resistance / cross-resistance level (MIC/MICwild-type) (E. coli D21f2tolC; [7]): 1
- resistance / cross-resistance level (MIC/MICwild-type) (E. coli D21f2tolC; [8]): 1
- resistance / cross-resistance level (MIC/MICwild-type) (E. coli D21f2tolC; [9]): 1
- resistance / cross-resistance level (MIC/MICwild-type) (E. coli D21f2tolC; [10]): 1
- resistance / cross-resistance level (MIC/MICwild-type) (E. coli D21f2tolC; [11]): 1
- MICwild-type (E. coli D21f2tolC; [12]): 1.56 µg/mL

Compound: [F^517]σ^70-RNAP holoenzyme (E. coli RNAP holoenzyme labelled with fluorescein at σ^70 residue 517), wild-type RNAP (from UniProt P0A8V2;P0A8T7;P00579) [Asp565]β
- Ki (GE23077): > 2 µM

Compound: [F^517]σ^70-RNAP holoenzyme (E. coli RNAP holoenzyme labelled with fluorescein at σ^70 residue 517), wild-type RNAP (from UniProt P0A8V2;P0A8T7;P00579) [Lys684]β
- Ki (GE23077): > 2 µM
